For this test, the target named is PAR4 (Homo sapiens (Human), UniProt Q96RI0). Description: FLIPR assay in PAR4-expressing HEK293 cells (PAR4 antagonist activity). The test is classed as cell-based. The note with it: H-Ala-Phe(4-F)-Pro-Gly-Trp-Leu-Val-Lys-Asn-Gly-NH2-induced intracellular calcium mobilization, 11-point curves. The source says:
The FLIPR assay is an exemplary in vitro assay for measuring the activity of the PAR4 antagonists of the present invention. In this assay, intracellular calcium mobilization is induced in PAR4 expressing cells by a PAR4 agonist and calcium mobilization is monitored. See, e.g., Example A.
HEK293 cells stably expressing PAR4 were generated by a standard method of transfection of human […] cDNA expression vector or by RAGE technology from Athersys Inc. (Cleveland, Ohio) and selected based on PAR4 protein expression of mRNA expression. […] These cells express endogenous PAR1 and can elicit calcium signal upon stimulation with PAR1 agonist peptide. Cells were grown in Dulbecco's Modified Eagle's Medium (DMEM) (Invitrogen, Carlsbad, Calif.), 10% FBS, 1% PSG, 3 μg/ml puromycin and 25 nM Methotrexate) at 37° C. with 5% CO2.
FLIPR-based calcium mobilization assay in HEK293 cells was used to measure PAR4 antagonism, agonism, and selectivity against PAR1. […] Counter screens for agonist activity and PAR1 antagonist activity were also performed. Briefly, PAR1/PAR4-expressing HEK293 cells were grown in DMEM (Life Technology, Grand Island, N.Y.) containing 10% heat-inactivated FBS, 1% Penicillin-Streptomycin, 10 μg/mL blasticidin, and 100 μg/mL Zeocin at 37° C. with 5% CO2. Cells were plated overnight prior to the experiment in a black 384-well Purecoat Amine clear bottom plate (Becton Dickinson Biosciences, San Jose, Calif.) at 10,000 cells/well in 30 μL growth medium and incubated in a humidified chamber at 37° C. with 5% CO2 overnight. Prior to compound addition, the cell medium was replaced with 40 μL of 1× calcium and magnesium-containing Hank's Balanced Saline Solution (HBSS) (with 20 mM HEPES) and 1:1000 diluted fluorescent calcium indicator (Codex Biosolutions, Gaithersburg, Md.). After a 30 minute incubation period at 37° C. and a further 30 minute incubation and equilibration period at room temperature, 20 μL test compound (diluted in 1×HBSS buffer) was added at various concentrations at 0.17% dimethyl sulfoxide (DMSO) final concentration. Changes in fluorescence intensity were measured using a Functional Drug Screening System (FDSS, Hamamatsu, Japan) to determine agonist activities. The cells were then incubated for 30 minutes at room temperature followed by addition of 20 μL of agonist peptide for antagonist activity measurement. […] Compound potency was derived from 11-point concentration-response curves.
As indicated above, the FLIPR assay, an in vitro assay, measures the PAR4 antagonist activity of compounds tested as described in Example A.
For orientation: Calcium assays in cells follow changes in intracellular calcium, usually with a dye or a luminescent sensor.

Usually IC50 stands for the concentration needed to halve the response being measured.

PAR4, sequence (Q96RI0 18-385): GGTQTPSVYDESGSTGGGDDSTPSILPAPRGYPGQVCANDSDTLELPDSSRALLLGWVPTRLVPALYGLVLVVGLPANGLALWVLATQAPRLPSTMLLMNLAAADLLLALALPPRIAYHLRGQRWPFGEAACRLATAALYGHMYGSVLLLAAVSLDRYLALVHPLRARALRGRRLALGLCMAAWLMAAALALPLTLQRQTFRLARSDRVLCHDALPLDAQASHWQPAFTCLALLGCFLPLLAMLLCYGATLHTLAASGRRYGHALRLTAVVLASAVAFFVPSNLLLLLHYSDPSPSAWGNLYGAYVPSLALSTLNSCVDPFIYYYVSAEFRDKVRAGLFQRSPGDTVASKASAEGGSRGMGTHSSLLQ

For `COc1cc(OC[C@@H]2CCCN2c2ccc(Cl)cc2)c2cc(-c3cn4nc(OC)sc4n3)oc2c1` [Example 15], the IC50 worked out at 1.3 µM.

As for `COc1cc(OC[C@@H]2CCCN2c2ccc(C#N)cc2)c2cc(-c3cn4nc(OC)sc4n3)oc2c1` [Example 16], the IC50 was 0.5 µM.

As to `COc1ccc(N2CCC[C@H]2COc2cc(OC)cc3oc(-c4cn5nc(OC)sc5n4)cc23)cc1` [Example 17], the half-maximal inhibitory concentration (IC50) was 0.29 µM.

Turning to `COc1cc(OC[C@@H]2CCCN2c2ccc(F)cc2)c2cc(-c3cn4nc(OC)sc4n3)oc2c1` [Example 18], the IC50 worked out at 0.47 µM.

Regarding `COc1cccc(N2CCC[C@H]2COc2cc(OC)cc3oc(-c4cn5nc(OC)sc5n4)cc23)c1` [Example 19], the IC50 amounted to 0.46 µM.

`COc1ccc(N2CCC[C@H]2COc2cc(OC)cc3oc(-c4cn5nc(OC)sc5n4)cc23)nc1` [Example 20]: the IC50 worked out at 0.71 µM.

Consider `COc1cc(OC[C@@H]2CCCN2c2ccc3c(c2)OCO3)c2cc(-c3cn4nc(OC)sc4n3)oc2c1` [Example 21], for which the IC50 is 0.54 µM.

With `COc1cc(OC[C@@H]2CCCN2c2ccc(C(F)(F)F)cc2)c2cc(-c3cn4nc(OC)sc4n3)oc2c1` [Example 22], the IC50 was found to be 0.44 µM.

Turning to `COc1cc(OC[C@@H]2CCCN2c2ccc(OC(F)(F)F)cc2)c2cc(-c3cn4nc(OC)sc4n3)oc2c1` [Example 23], the IC50 came to 0.6 µM.

As to `COc1cc(OC[C@@H]2CCCN2c2ccc(C)cc2)c2cc(-c3cn4nc(OC)sc4n3)oc2c1` [Example 24], the IC50 came out at 0.95 µM.

Take `COc1cc(OC[C@@H]2CCN(c3ccc(Cl)cc3)C2)c2cc(-c3cn4nc(OC)sc4n3)oc2c1` [Example 25]: the IC50 is 0.79 µM.

`COc1ccc(N2CC[C@@H](COc3cc(OC)cc4oc(-c5cn6nc(OC)sc6n5)cc34)C2)cc1` [Example 26]: the IC50 is 1.4 µM.

`COc1cc(OCC2CN(c3ccc(F)cc3)C2)c2cc(-c3cn4nc(OC)sc4n3)oc2c1` [Example 27]: the half-inhibitory concentration (IC50) was 2.3 µM.

As to `COc1cc(OC[C@@H]2CCCN(c3ccc(C#N)cc3)C2)c2cc(-c3cn4nc(OC)sc4n3)oc2c1` [Example 28], the IC50 stood at 1.8 µM.

Turning to `CCOC(=O)c1ccc(N2CCC[C@@H](COc3cc(OC)cc4oc(-c5cn6nc(OC)sc6n5)cc34)C2)cc1` [Example 29], the IC50 came to 0.95 µM.

On to `COc1cc(OC[C@H]2CCCN(c3ccc(C#N)cc3)C2)c2cc(-c3cn4nc(OC)sc4n3)oc2c1` [Example 30], for which the IC50 came out at 0.86 µM.

On to `CCOC(=O)c1ccc(N2CCC[C@H](COc3cc(OC)cc4oc(-c5cn6nc(OC)sc6n5)cc34)C2)cc1` [Example 31], for which the concentration for half-maximal inhibition (IC50) came out at 0.89 µM.

`COc1ccc(N2CCCC(COc3cc(OC)cc4oc(-c5cn6nc(OC)sc6n5)cc34)C2)nc1` (stereo not shown) [Example 32]: the IC50 amounted to 2.8 µM.

As to `COc1cc(OCC2CCCN(c3ccc(Cl)cc3)C2)c2cc(-c3cn4nc(OC)sc4n3)oc2c1` (stereo not shown) [Example 33], the IC50 was 0.44 µM.

Turning to `COc1cc(OC[C@@H]2CCCN(c3ccc(Cl)cc3)C2)c2cc(-c3cn4nc(OC)sc4n3)oc2c1` [Example 34], the IC50 was found to be 0.7 µM.

As for `COc1cc(OC[C@H]2CCCN(c3ccc(Cl)cc3)C2)c2cc(-c3cn4nc(OC)sc4n3)oc2c1` [Example 35], the IC50 worked out at 0.84 µM.

With `COc1ccc(N2CCCC(COc3cc(OC)cc4oc(-c5cn6nc(OC)sc6n5)cc34)C2)cc1` (stereo not shown) [Example 36], the IC50 amounted to 0.75 µM.

Turning to `COc1cc(OCC2CCCN(c3ncc(F)cc3F)C2)c2cc(-c3cn4nc(OC)sc4n3)oc2c1` (stereo not shown) [Example 37], the IC50 is 0.56 µM.

As for `COc1cc(OCC2CCCN(c3ccc4c(c3)OCO4)C2)c2cc(-c3cn4nc(OC)sc4n3)oc2c1` (stereo not shown) [Example 38], the IC50 is 0.54 µM.

`COc1cc(OCC2CCCN(c3ccc(C(F)(F)F)cc3)C2)c2cc(-c3cn4nc(OC)sc4n3)oc2c1` (stereo not shown) [Example 39]: the half-maximal inhibitory concentration (IC50) worked out at 0.51 µM.

Regarding `COc1cc(OCC2CCCN(c3ccc(C#N)cc3)C2)c2cc(-c3cn4nc(OC)sc4n3)oc2c1` (stereo not shown) [Example 40], the IC50 was 1.3 µM.

Regarding `CCOC(=O)c1ccc(N2CCCC(COc3cc(OC)cc4oc(-c5cn6nc(OC)sc6n5)cc34)C2)cc1` (stereo not shown) [Example 41], the IC50 amounted to 2.1 µM.

For `COc1ccc(N2CCCC(COc3cc(OC)cc4oc(-c5cn6nc(OC)sc6n5)cc34)C2)c(OC)c1` (stereo not shown) [Example 42], the IC50 was determined as 1.1 µM.

For `COc1cc(OCC2CCCN(c3cc(C#N)ccn3)C2)c2cc(-c3cn4nc(OC)sc4n3)oc2c1` (stereo not shown) [Example 43], the IC50 was 0.48 µM.

Turning to `COc1cc(OC[C@@H]2CCCN(c3ccc(C#N)cn3)C2)c2cc(-c3cn4nc(OC)sc4n3)oc2c1` [Example 44], the IC50 is 0.75 µM.

Take `CCOC(=O)c1ccc(N2CCCCC2COc2cc(OC)cc3oc(-c4cn5nc(OC)sc5n4)cc23)cc1` (stereo not shown) [Example 45]: the IC50 was 0.37 µM.

Consider `COc1cc(OCC2CCCCN2c2ccc(C#N)cc2)c2cc(-c3cn4nc(OC)sc4n3)oc2c1` (stereo not shown) [Example 46], for which the IC50 worked out at 0.24 µM.

For the molecule `CCOC(=O)c1ccc(N2CCC(COc3cc(OC)cc4oc(-c5cn6nc(OC)sc6n5)cc34)CC2)cc1` [Example 47], the IC50 is 1 µM.

In the case of `COc1cc(OCC2CCN(c3ccc(C#N)cc3)CC2)c2cc(-c3cn4nc(OC)sc4n3)oc2c1` [Example 48], the IC50 amounted to 1.1 µM.

Turning to `COc1cc(OCC2CCN(c3ccc(Cl)cc3)CC2)c2cc(-c3cn4nc(OC)sc4n3)oc2c1` [Example 49], the IC50 worked out at 2.7 µM.

`COc1cc(OCC2CCN(c3ccc(F)cc3)CC2)c2cc(-c3cn4nc(OC)sc4n3)oc2c1` [Example 50]: the half-maximal inhibitory concentration (IC50) turned out to be 4.8 µM.

Turning to `COc1cc(OCC2CCN(c3ccccc3)CC2)c2cc(-c3cn4nc(OC)sc4n3)oc2c1` [Example 51], the IC50 worked out at 5 µM.

Turning to `COc1cc(OC[C@H]2CCCN(c3ccc(F)cc3)C2)c2cc(-c3cn4nc(OC)sc4n3)oc2c1` [Example 52], the concentration for half-maximal inhibition (IC50) turned out to be 1.1 µM.

Consider `COc1cc(OC[C@@H]2CCCN(c3ccccc3)C2)c2cc(-c3cn4nc(OC)sc4n3)oc2c1` [Example 53], for which the IC50 worked out at 1.8 µM.

On to `COc1cc(OC[C@H]2CCCN(c3ccccc3)C2)c2cc(-c3cn4nc(OC)sc4n3)oc2c1` [Example 54], for which the concentration for half-maximal inhibition (IC50) was determined as 1.4 µM.

With `COc1cc(OCC2CCCCN2c2ccc(Cl)cc2)c2cc(-c3cn4nc(OC)sc4n3)oc2c1` (stereo not shown) [Example 55], the IC50 is 0.72 µM.

For the molecule `COc1cc(OCC2CCCCN2c2ccc(Cl)cc2)c2cc(-c3cn4nc(OC)sc4n3)oc2c1` (stereo not shown) [Example 57], the IC50 came to 0.74 µM.

Regarding `COc1cc(OC[C@H]2CCCN(Cc3ccc(Cl)cc3)C2)c2cc(-c3cn4nc(OC)sc4n3)oc2c1` [Example 58], the IC50 was found to be 1.4 µM.

For the molecule `COc1cc(OC[C@H]2CCCN(C(=O)OCc3ccccc3)C2)c2cc(-c3cn4nc(OC)sc4n3)oc2c1` [Example 59], the IC50 turned out to be 1.2 µM.

Turning to `COc1cc(OCC2CCCN(c3nncs3)C2)c2cc(-c3cn4nc(OC)sc4n3)oc2c1` (stereo not shown) [Example 60], the IC50 is 2.7 µM.

As to `CCOC(=O)c1cnc(N2CCCC(COc3cc(OC)cc4oc(-c5cn6nc(OC)sc6n5)cc34)C2)s1` (stereo not shown) [Example 61], the IC50 stood at 1.5 µM.

As to `COc1cc(OCC2CCCN(c3ncc(Br)s3)C2)c2cc(-c3cn4nc(OC)sc4n3)oc2c1` (stereo not shown) [Example 62], the 50% inhibitory concentration (IC50) is 1.9 µM.

As for `COc1cc(OCC2CCCN(c3ccc(Cl)cn3)C2)c2cc(-c3cn4nc(OC)sc4n3)oc2c1` (stereo not shown) [Example 63], the IC50 was determined as 0.86 µM.

`COc1cc(OCC2CCCN(c3ccc(Cl)cn3)C2)c2cc(-c3cn4nc(OC)sc4n3)oc2c1` (stereo not shown) [Example 64]: the concentration for half-maximal inhibition (IC50) came to 0.82 µM.

As for `COc1cc(OCC2CCCN(c3ncc(Br)cn3)C2)c2cc(-c3cn4nc(OC)sc4n3)oc2c1` (stereo not shown) [Example 66], the IC50 worked out at 1.4 µM.

In the case of `COc1cc(OCC2CCC(=O)N(c3ccc(Cl)cc3)C2)c2cc(-c3cn4nc(OC)sc4n3)oc2c1` (stereo not shown) [Example 67], the IC50 was determined as 3.3 µM.

As to `COc1cc(OCC2CCCN(c3ccc(NC(=O)OC(C)(C)C)cc3)C2)c2cc(-c3cn4nc(OC)sc4n3)oc2c1` (stereo not shown) [Example 68], the IC50 is 2.1 µM.

For the molecule `COc1cc(OCC2CCCN(c3ccc(NC(=O)OC(C)(C)C)nc3)C2)c2cc(-c3cn4nc(OC)sc4n3)oc2c1` (stereo not shown) [Example 69], the IC50 is 3.2 µM.

Consider `COc1ccc(COc2ccc(N3CCCC(COc4cc(OC)cc5oc(-c6cn7nc(OC)sc7n6)cc45)C3)cc2)cc1` (stereo not shown) [Example 70], for which the IC50 was determined as 3.5 µM.

Consider `COc1cc(OCC2CCCN(c3ccc(NC(=O)C(F)(F)F)nc3)C2)c2cc(-c3cn4nc(OC)sc4n3)oc2c1` (stereo not shown) [Example 71], for which the concentration for half-maximal inhibition (IC50) was found to be 1.3 µM.
